Source: patent EP3991725B1, “NOVEL ENTERO-ANTISEPTIC FOR THE TREATMENT OF GASTROINTENSTINAL INFECTIONS IN HUMANS” (Ninkov, Dusan, priority 2020, dated 2022)

Assays:
[1] = tested on: mammalian cells, mitotic division; assay: Pilot test of effect on mitotic cell division; type: cell-based; conditions: the compound in tablet form
Description: In the pilot test at the same Institute, the effect of the compound on the mammalian cells, mitotic division has also been tested. It has been investigated if the compound in tablet form will have any negative - suppressive effect on the mitotic cells division. […] It is a positive sign that the compound in tablet form might be used for on pregnant mammals, without danger of the teratogenic effect on the fetus in the wombs, by the pregnant mammals.

[2] = tested on: Listeria monocytogenes; assay: Comparative in vitro examination of selected pathogens, zone diameter; type: cell-based; conditions: (Müller)Hinton-Agar; amount used: The novel compound 0.05 mL; Cephalosporin 0.1 mL; Ampicillin 0.2 mL
[3] = tested on: rats; assay: Acute toxicity LD50, oral (p.o.), rats; conditions: oral dose 2,500 mg/kg
[4] = tested on: E. coli; assay: Comparative in vitro examination of selected pathogens, zone diameter; type: cell-based; conditions: (Müller)Hinton-Agar; amount used: The novel compound 0.05 mL; Cephalosporin 0.1 mL; Ampicillin 0.2 mL
[5] = tested on: Listeria; assay: as above; type: cell-based; conditions: (Müller)Hinton-Agar; amount used: The novel compound 0.05 mL; Cephalosporin 0.1 mL; Ampicillin 0.2 mL
[6] = tested on: Campylobacter; assay: as above; type: cell-based; conditions: (Müller)Hinton-Agar; amount used: The novel compound 0.05 mL; Cephalosporin 0.1 mL; Ampicillin 0.2 mL
[7] = tested on: Escherichia coli 0157H5; assay: as above; type: cell-based; conditions: (Müller)Hinton-Agar; amount used: The novel compound 0.05 mL; Cephalosporin 0.1 mL; Ampicillin 0.2 mL
[8] = tested on: Salmonella typhimurium DT104; assay: as above; type: cell-based; conditions: (Müller)Hinton-Agar; amount used: The novel compound 0.05 mL; Cephalosporin 0.1 mL; Ampicillin 0.2 mL
[9] = tested on: Salmonella strain which requires histidine; assay: Ames test (mutagenic and carcinogenic effect); type: cell-based
Description: (The subject of the testing was to determine the mutagenic and carcinogenic effect of the compound in tablet form). The test has been done by the Ames test. This test which is a widely and often used method that use pathogens in most cases bacteria's in order to test whether a given chemical, compound and/or medicine can cause any damage to the DNA of the test organism. This method is fast to conduct and easy to follow to check mutagenic or carcinogenic effect of the tested compound. In the lab dish with a the specially selected Salmonella strain which requires histidine, was added to a rat liver extract. The test has been done using the control-experimental method. In the dish volume of the 20 mL of liquid considered to be a control one, had no the compound in it. Into the dish we consider to be experimental one with also a volume of 20 mL, we added 2 mL of the compound, partly diluted into a glucose injectable solution. The mutagenic test results were negative in both lab dishes - control and experimental plates. The results were identical with no signs of the mutations.

[10] = tested on: Shigella; assay: Comparative in vitro examination of selected pathogens, zone diameter; type: cell-based; conditions: (Müller)Hinton-Agar; amount used: The novel compound 0.05 mL; Cephalosporin 0.1 mL; Ampicillin 0.2 mL
[11] = tested on: Streptococcus pyogenes; assay: as above; type: cell-based; conditions: (Müller)Hinton-Agar; amount used: The novel compound 0.05 mL; Cephalosporin 0.1 mL; Ampicillin 0.2 mL
[12] = tested on: Salmonella; assay: as above; type: cell-based; conditions: (Müller)Hinton-Agar; amount used: The novel compound 0.05 mL; Cephalosporin 0.1 mL; Ampicillin 0.2 mL
[13] = tested on: Yersinia; type: cell-based; conditions: (Müller)Hinton-Agar; amount used: The novel compound 0.05 mL; Cephalosporin 0.1 mL; Ampicillin 0.2 mL
[14] = tested on: rats; assay: Acute toxicity LD50, parenteral - intraperitoneal (i.p.), rats; conditions: i.p. dose 2,500 mg/kg
[15] = tested on: Staphylococcus aureus; assay: Comparative in vitro examination of selected pathogens, zone diameter; type: cell-based; conditions: (Müller)Hinton-Agar; amount used: The novel compound 0.05 mL; Cephalosporin 0.1 mL; Ampicillin 0.2 mL
[16] = tested on: bacteria; assay: In vitro studies of bactericide effect; type: cell-based; conditions: compared with Thymol and Carvacrol
Description: Their physiological activity is well known. […] The phenol groups of both Thymol and Carvacrol are very aggressive to pathogens: bacteria, fungi etc. These groups are needed for bioactivity of our product. What has been done was making the phenol group less reactive by reacting them with carboxylic and amino group of glycine. The product should be administered p.o. (per os). The novelty idea was to hydrolyze a part of the new molecule in the stomach by hydrochloric acid. Carvacrol and an ester of Glycine and Thymol will be slowly hydrolyzed into Thymol and Glycine. […] The subject of this invention is to produce a potent entero-antiseptic for the treatment gastrointestinal infections in humans.

[17] = tested on: mice; assay: Acute toxicity LD50, parenteral - intraperitoneal (i.p.), mice; conditions: mouse, in vivo
[18] = tested on: humans; assay: Clinical pilot study for side effects of the compound tablets; type: in vivo; conditions: 60 humans; 250 mg / 30 kg of the body weight every 12 hours for seven (7) days
Description: The reason for this testing was to check if the compound tablets, after a longer period of use, can cause any eventual side effects.
The test results were generated and monitored to obtain the relevant information and facts. In this study, the general monitored parameters were pulse, breathing, ECG (Electrocardiography), any discomfort, adverse events and/or allergy monitoring. These parameters were measured before the treatment with the compound and 15 minutes after its intake. The compound was ingested on the therapeutic days in each patient at 8.00 AM and 8.00 PM CET (paragraph [0026] and paragraph [0027]). After The compound had been consumed, the physician made observations for 30 min. Feeling of the patients during and after the intake of the compound will also be recorded for each participant.
As part of the biochemical analysis of patients' blood, the blood sample of each patient was checked for biochemical parameters. Blood samples were taken from each patient before the beginning of the test, on the 4th day from the tests beginning, and on the 8th day form the tests beginning. The last blood samples have to be checked 12 hours from the last intake of the compound. The biochemical parameters that were measured in blood samples include: • 1. Liver status • 2. C Reactive protein • 3. Kidney Status
The dose was: 250 mg of the compound / 30 kg of the body weight every 12 hours for seven (7) days (paragraph [0026] and paragraph [0027]).
The clinical study started on November 5th, 2019, and was completed on November 29th, 2019.

[19] = tested on: Streptococcus uberis; assay: Comparative in vitro examination of selected pathogens, zone diameter; type: cell-based; conditions: (Müller)Hinton-Agar; amount used: The novel compound 0.05 mL; Cephalosporin 0.1 mL; Ampicillin 0.2 mL
[20] = tested on: mice; assay: Acute toxicity LD50, oral (p.o.), mice; conditions: oral dose 2,000 mg/kg
[21] = tested on: Vibrio; assay: Comparative in vitro examination of selected pathogens, zone diameter; type: cell-based; conditions: (Müller)Hinton-Agar; amount used: The novel compound 0.05 mL; Cephalosporin 0.1 mL; Ampicillin 0.2 mL
[22] = tested on: Streptococcus pneumonia; assay: as above; type: cell-based; conditions: (Müller)Hinton-Agar; amount used: The novel compound 0.05 mL; Cephalosporin 0.1 mL; Ampicillin 0.2 mL
[23] = tested on: rats; conditions: oral (p.o.), Carvacrol 99,5% concentration, reference value; cited from earlier work
[24] = phenol group of Carvacrol; cited from earlier work

2-(2-isopropyl-5-methylphenoxy)-2-oxoethan-1-aminium 2-isopropyl-5-methylphenolate [The novel compound]
negative - suppressive effect on the mitotic cells division [1]: no negative effects
R (evaluation of the results by zone diameter) [2]: E S
zone diameter [2]: 38 mm
rats out of a hundred (100) that changed their behavior and demonstrated light discomfort [3]: 37
R (evaluation of the results by zone diameter) [4]: E S
zone diameter [4]: 32 mm
R (evaluation of the results by zone diameter) [5]: E S
zone diameter [5]: 32 mm
R (evaluation of the results by zone diameter) [6]: E S
zone diameter [6]: 35 mm
R (evaluation of the results by zone diameter) [7]: E S
zone diameter [7]: 29 mm
R (evaluation of the results by zone diameter) [8]: E S
zone diameter [8]: 30 mm
mutagenic test results ([9]; Ames test, rat liver extract, 2 mL of the compound, partly diluted into a glucose injectable solution, in 20 mL dish, preliminary result): negative
carcinogenic effect ([9]; suggested from the negative Ames test result, the compound in tablet form): no carcinogenic effect
R (evaluation of the results by zone diameter) [10]: E S
zone diameter [10]: 31 mm
R (evaluation of the results by zone diameter) [11]: E S
zone diameter [11]: 34 mm
R (evaluation of the results by zone diameter) [12]: E S
zone diameter [12]: 34 mm
R (evaluation of the results by zone diameter) [13]: E S
zone diameter [13]: 30 mm
rats out of a hundred (100) that changed their behavior and demonstrated discomfort [14]: 35
R (evaluation of the results by zone diameter) [15]: E S
zone diameter [15]: 32 mm
bactericide effect [16]: more effective and faster bactericide effect than existing Thymol and Carvacrol
mice out of a hundred (100) that changed their behavior and demonstrated discomfort [17]: 27
time after which discomfort symptoms disappeared [17]: 3 to 5 min
C Reactive Protein (CRP) measurements [18]: no inflammation was developed
Electrocardiography measurements [18]: regular without any pathological and irregular oscillations
kidney functions (urine and blood parameters) [18]: No irregular parameters were reported
liver function biochemical analysis from blood samples [18]: No irregular parameters were reported
pulse frequency and blood pressure [18]: not significantly altered
respiratory function [18]: not disturbed
symptoms of allergy [18]: no symptoms of allergy
tolerance to the compound upon the prescribed dosage [18]: showed tolerance
R (evaluation of the results by zone diameter) [19]: E S
zone diameter [19]: 37 mm
mice out of a hundred (100) that changed their behavior and demonstrated light discomfort [20]: 21
R (evaluation of the results by zone diameter) [21]: E S
zone diameter [21]: 33 mm
R (evaluation of the results by zone diameter) [22]: E S
zone diameter [22]: 36 mm

CC1(C)S[C@@H]2[C@H](NC(=O)[C@H](N)c3ccccc3)C(=O)N2[C@H]1C(=O)O [Ampicillin]
R (evaluation of the results by zone diameter) [2]: M S
zone diameter [2]: 5 mm
R (evaluation of the results by zone diameter) [4]: R (0mm - 4mm: resistant: R)
zone diameter [4]: 2 mm
R (evaluation of the results by zone diameter) [5]: R (0mm - 4mm: resistant: R)
zone diameter [5]: 2 mm
R (evaluation of the results by zone diameter) [6]: R (0mm - 4mm: resistant: R)
zone diameter [6]: 0 mm
R (evaluation of the results by zone diameter) [7]: M S
zone diameter [7]: 7 mm
R (evaluation of the results by zone diameter) [8]: M S
zone diameter [8]: 6 mm
R (evaluation of the results by zone diameter) [10]: M S
zone diameter [10]: 6 mm
R (evaluation of the results by zone diameter) [11]: R (0mm - 4mm: resistant: R)
zone diameter [11]: 3 mm
R (evaluation of the results by zone diameter) [12]: M S
zone diameter [12]: 8 mm
R (evaluation of the results by zone diameter) [13]: R (0mm - 4mm: resistant: R)
zone diameter [13]: 1 mm
R (evaluation of the results by zone diameter) [15]: R (0mm - 4mm: resistant: R)
zone diameter [15]: 0 mm
R (evaluation of the results by zone diameter) [19]: R (0mm - 4mm: resistant: R)
zone diameter [19]: 0 mm
R (evaluation of the results by zone diameter) [21]: R (0mm - 4mm: resistant: R)
zone diameter [21]: 4 mm
R (evaluation of the results by zone diameter) [22]: R (0mm - 4mm: resistant: R)
zone diameter [22]: 0 mm

Cc1ccc(C(C)C)cc1O [Carvacrol]
LD50 [23]: 810 mg/kg
pKa [24]: 10.4
